Laboratory results taken from patent US20110027240A1, “[…] ENTRY […] FOR THERAPY OF HIV INFECTION” (priority 2008, published 2011).

Test system: lentiviral vector particles pseudotyped with the HIV-1 JRFL envelope glycoprotein
Test: Single-round infection assay
Format: cell-based
Details: PM-1 cells; supernatants of transfected HEK 293T cells; eGFP positive cells by flow cytometry
Protocol: Virus production and titration: Viral vector supernatants were produced in HEK 293T cells. 6×10^6 cells were plated on 9.4 cm dishes 24 h prior to transfection. For transfection, the medium was changed and 25 μM chloroquine was added. 7.5 μg retroviral vector DNA was transfected by the calcium phosphate precipitation method. To generate GaLV pseudotyped retroviral particles 2 μg pALF-GaLV CM (GaLV CM expression plasmid; Stitz et al., Virology 2000) and 12.5 μg M57-DAW (MuLV gag/pol expression plasmid; Schambach et al., Gene Ther 2006) were transfected in addition. For the production of lentiviral vectors encoding eGFP, and pseudotyped with the HIV-1 JRFL envelope glycoprotein 7.5 μg pHR′SIN-cPPT-SEW-new (SIN lentiviral vector encoding eGFP), 12.5 μg pCMV-dR8.91 (lentiviral gag/pol expression plasmid), and 1 μg M118 (HIV-1 JRFL expression plasmid) were co-transfected. Medium was changed after 6-8 h incubation. […] In the case of lentiviral vectors expressing eGFP, vector titers were determined by transducing predefined numbers of PM-1 cells with serial dilutions of vector supernatant and analyzing the percentage of eGFP positive cells by flow cytometry. For retroviral vectors expressing secreted peptides transduced cells were analyzed by intracellular immunostaining for the peptide of interest. […]

For “WQQWERQVRFLDANITKLLEEAQIQQEKNMYELQELDKWASLWNWF [C46-EHO]”, the “antiviral (inhibitory) activity of supernatants containing secreted peptides” value was “slightly reduced”.
